Results taken from PMC12480751, “A quantitative high-throughput screening pipeline to identify small molecule inhibitors of Chikungunya nsP2 protease” (Scientific Reports, 2025).
Entries after “also recorded” stand apart in the source; their conditions may differ. Where two headings read alike, the source gives them in different places.

Experiments:
[1] = system: CHIKV 181/25 vaccine strain; assay: CHIKV181/25 infection assay in SNB-19 cells, high-content immunofluorescence
[2] = target: CHIKV nsP2pro (Chikungunya virus, UniProt Q8JUX6); assay: FRET-based nsP2pro proteolytic assay with peptide 2 (nsp3/4 site), 1,536-well qHTS; format: biochemical; conditions: for inhibitory activity against CHIKV nsP2: biochemical assays; for selectivity for nsP2pro versus Papain, hFurin and HCV NS3-4A: based on biochemical counterscreens; for Emax: read-out: Enzymatic % Efficacy
[3] = target: T1, nsP2 protease (Chikungunya virus, UniProt Q8JUX6); assay: cell-based; format: cell-based; conditions: for Emax: HEK293, read-out: Cell-based % Efficacy
T1 construct: expressed in transfected cells; host or cells: HEK293T (the results text says HEK293), transient co-transfection in pcDNA3.1(+)
T1 sequence (Q8JUX6 755-1333 limits assumed): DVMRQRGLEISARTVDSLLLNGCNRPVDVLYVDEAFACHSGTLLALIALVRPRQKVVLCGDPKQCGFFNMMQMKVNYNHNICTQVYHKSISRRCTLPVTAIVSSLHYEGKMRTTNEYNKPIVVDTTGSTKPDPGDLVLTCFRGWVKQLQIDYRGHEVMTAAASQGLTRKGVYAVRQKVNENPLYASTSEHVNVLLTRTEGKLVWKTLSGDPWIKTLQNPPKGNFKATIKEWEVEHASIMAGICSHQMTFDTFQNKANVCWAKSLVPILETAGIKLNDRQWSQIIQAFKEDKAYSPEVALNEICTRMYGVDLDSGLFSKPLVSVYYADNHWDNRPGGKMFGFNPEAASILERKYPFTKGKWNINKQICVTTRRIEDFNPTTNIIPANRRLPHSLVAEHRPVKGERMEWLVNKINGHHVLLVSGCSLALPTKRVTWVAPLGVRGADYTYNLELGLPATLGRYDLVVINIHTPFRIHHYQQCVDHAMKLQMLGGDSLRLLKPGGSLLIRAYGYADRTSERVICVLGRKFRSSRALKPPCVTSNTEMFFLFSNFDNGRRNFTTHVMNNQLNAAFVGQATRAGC

[4] = system: HCV NS3-4A
[5] = target: nsP2pro (Chikungunya virus, UniProt Q8JUX6); conditions: for nsP2pro Vmax: 150 nM nsP2pro (peptide 2) or 2 μM nsP2pro (peptide 3); for Km: read-out: nsP2pro Km; for Km / nsP2pro kcat: substrate peptide
[6] = target: FL nsP2 (Chikungunya virus, UniProt Q8JUX6, C1333A); conditions: for full-length nsP2 Vmax: 150 nM nsP2 (peptide 2) or 2 μM nsP2 (peptide 3); for Km: read-out: FL nsP2 Km; for Km / FL nsP2 kcat: substrate peptide
[7] = target: human Furin (Homo sapiens, UniProt P09958); assay: human Furin FRET selectivity counterscreen; format: biochemical
[8] = CellTiter-Glo cell viability assay of SNB19 cells; format: cell-based, human; conditions: human, SNB19 cells
Experimental: Cells were harvested in growth media and dispensed (5 µL /1,000 cells/well) onto 1536-well white plates (Aurora #EWB041000A) using a Multidrop Combi. Control and test compounds were added (25 nL) using an Echo 650 liquid handler. Plates were incubated for 48 h at 37 °C and 5% CO2 and then equilibrated to room temperature prior to addition of 4 µL /well of CellTiter-Glo (Promega) using a Multidrop Combi. Plates were subsequently incubated for 15 min at room temperature and centrifuged for 1 min at 1000 rpm. Luminescence was read on a ViewLux imager equipped with clear filters.

[9] = target: Papain (Carica papaya, UniProt P00784)
[10] = nsP2pro biochemical assay, 13 cell-active hits
[11] = nsP2pro biochemical assay, 13 cell-active hits, read-out: Enzymatic IC50

Chain of Papain (P00784 134-345): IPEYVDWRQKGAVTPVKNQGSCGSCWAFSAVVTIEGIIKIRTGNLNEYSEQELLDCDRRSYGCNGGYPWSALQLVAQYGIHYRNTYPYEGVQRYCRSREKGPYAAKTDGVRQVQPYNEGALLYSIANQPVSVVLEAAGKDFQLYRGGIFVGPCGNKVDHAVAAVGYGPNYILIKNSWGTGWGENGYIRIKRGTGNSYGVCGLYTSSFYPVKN
Chain of human Furin (P09958 108-794): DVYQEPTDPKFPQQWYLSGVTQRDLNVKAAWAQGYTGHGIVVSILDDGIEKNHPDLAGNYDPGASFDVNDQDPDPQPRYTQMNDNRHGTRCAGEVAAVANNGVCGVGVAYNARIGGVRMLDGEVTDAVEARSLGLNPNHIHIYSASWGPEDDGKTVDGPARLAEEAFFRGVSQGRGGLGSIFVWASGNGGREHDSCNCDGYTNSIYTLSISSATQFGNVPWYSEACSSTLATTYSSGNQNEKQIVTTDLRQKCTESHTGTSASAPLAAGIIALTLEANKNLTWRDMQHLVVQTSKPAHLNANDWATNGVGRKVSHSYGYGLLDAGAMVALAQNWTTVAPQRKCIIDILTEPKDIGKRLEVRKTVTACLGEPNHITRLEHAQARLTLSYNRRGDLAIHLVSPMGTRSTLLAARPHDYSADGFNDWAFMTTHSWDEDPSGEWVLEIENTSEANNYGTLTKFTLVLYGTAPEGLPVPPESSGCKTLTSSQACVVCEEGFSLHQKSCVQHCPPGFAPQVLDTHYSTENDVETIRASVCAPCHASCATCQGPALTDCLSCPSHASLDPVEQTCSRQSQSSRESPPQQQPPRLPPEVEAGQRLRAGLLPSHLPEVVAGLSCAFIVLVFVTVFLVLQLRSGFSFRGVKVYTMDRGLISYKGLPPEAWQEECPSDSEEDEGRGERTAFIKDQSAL

## Nc1ccn([C@@H]2O[C@H](CO)[C@@H](O)C2(F)F)c(=O)n1 [Gemcitabine]
[1]; SNB-19 cells, infection inhibition control
  concentrations showing consistent CHIKV inhibition: under 1 µM

## O=C(O[C@@H]1Cc2c(O)cc(O)cc2O[C@@H]1c1cc(O)c(O)c(O)c1)c1cc(O)c(O)c(O)c1 [EGCG, Epigallocatechin gallate]
[2]
  inhibitory activity against CHIKV nsP2: inhibited nsp2pro activity in vitro
[3]
  effect on Nluc reporter signal in cellular nsp2 proteolytic assay: did not have an effect
[1]; SNB-19 cells
  effect on CHIKV infection: strongly prevented CHIKV infection

## COc1cccc(C(=O)CCN[C@@H](C)[C@H](O)c2ccccc2)c1 [Oxyfedrine]
[2]
  IC50: 1.3 µM
  selectivity for nsP2pro versus Papain, hFurin and HCV NS3-4A: selective hits; also recorded: specific to nsP2pro
  Emax: -88.6%
[3]
  AC50: 2.6 µM
  Emax: 60.3%

## Cc1ccc(OCCn2c(CCNC(=O)c3ccccc3N)nc3ccccc32)cc1 [NCGC00241881]
[2]
  selectivity for nsP2pro versus Papain, hFurin and HCV NS3-4A: not selective
[2]; [10]
  Enzymatic % Efficacy: -106.1%
[2]; [11]
  IC50: 1.1 µM
[3]
  Cell-based % Efficacy: 179%
[3]; read-out: Cell-based AC50
  AC50: > 50 µM

## Cc1cccc(-c2noc([C@@H]3Cc4nc[nH]c4CN3C(=O)NC3CCCCC3)n2)c1 [NCGC00400417]
[2]
  selectivity for nsP2pro versus Papain, hFurin and HCV NS3-4A: not selective
[2]; [10]
  Enzymatic % Efficacy: -107.3%
[2]; [11]
  IC50: 2.1 µM
[3]
  Cell-based % Efficacy: 75.7%
[3]; read-out: Cell-based AC50
  AC50: 47.2 µM

## C[C@H](N)[C@H](O)c1ccc(O)c(O)c1 [Levonordefrin]
[2]
  IC50: 7.7 µM
  selectivity for nsP2pro versus Papain, hFurin and HCV NS3-4A: not selective
  Emax: -74.9%
[3]
  AC50: 0.4 µM
  Emax: 71.5%
[4]
  activity against HCV NS3-4A: also inhibited

## CCOc1ccc(NC(=O)c2c(NC(=O)Cc3ccccc3)sc3c2CCCCC3)cc1 [NCGC00098557]
[2]; [10]
  Enzymatic % Efficacy: -80.1%
[2]; [11]
  IC50: 7.9 µM
[3]
  Cell-based % Efficacy: 101.3%
[3]; read-out: Cell-based AC50
  AC50: 12.9 µM

## 5-TAMRA-DELRLDRAGGYIFSS-K-QSY7 [Peptide 2]
[5]
  nsP2pro Vmax: 0.26 µM/min
  Km: 6.3 µM
  nsP2pro kcat: 214.2 ± 13.1 x 10^-4 sec^-1
[6]
  full-length nsP2 Vmax: 0.2 µM/min
  Km: 1.1 µM
  FL nsP2 kcat: 167.2 ± 10.4 s⁻¹

## Nc1nc2c(s1)CCN(Cc1ccc(Cl)cc1)CC2 [B-HT 958]
[2]
  IC50: 7.9 µM
  selectivity for nsP2pro versus Papain, hFurin and HCV NS3-4A: specific to nsP2pro
  Emax: -62.1%
[3]
  AC50: 0.23 µM
  Emax: 114%

## C/C(=N\NC(=N)N)c1cc(NC(=O)CCCCCCCCC(=O)Nc2cc(/C(C)=N/NC(=N)N)cc(/C(C)=N/NC(=N)N)c2)cc(/C(C)=N/NC(=N)N)c1 [Semapimod]
[2]
  IC50: 6.3 µM
  selectivity for nsP2pro versus Papain, hFurin and HCV NS3-4A: not selective
  Emax: -106%
[7]
  activity against Furin: weak activity
[3]
  AC50: 2.2 µM
  Emax: 137%
[8]
  CC50 at 48 h: 20.6 µM
[4]
  activity against HCV NS3-4A: also inhibited
[1]; Chikungunya virus, SNB-19, 44 h, read-out: IC50, prevention of CHIKV infection
  IC50: 1.6 µM
[1]; IC50 infection vs CC50 SNB19
  potency on CHIKV infection relative to effect on cell viability: > tenfold

## C#CC(=O)N(c1ccc(OC)cc1OC)C(C(=O)NCC(=O)OCC)c1cccs1 (stereo not shown) [PACMA 31]
[2]
  selectivity for nsP2pro versus Papain, hFurin and HCV NS3-4A: selective hits

## CC(NC(=O)[C@H](Cc1ccccc1)NC(=O)OCc1ccccc1)C(=O)CF (stereo partly shown) [Z-FA-FMK]
[2]
  inhibitory activity against CHIKV nsP2: minimal inhibitory activity
[9]
  activity against Papain: potently inhibiting

## TMR-DELRLDRAGC/APSYR-K-QSY7 [Peptide 3]
[5]
  nsP2pro Vmax: 1.03 µM/min
  Km: 81.9 µM
  nsP2pro kcat: 85.5 ± 4.1 x 10^-4 sec^-1
[6]
  full-length nsP2 Vmax: 0.38 µM/min
  Km: 37.5 µM
  FL nsP2 kcat: 32.1 ± 2.1 s⁻¹

## CCCS(=O)(=O)c1ncc(Cl)c(C(=O)N(Cc2ccccc2)Cc2ccco2)n1 [NCGC00115102]
[2]
  selectivity for nsP2pro versus Papain, hFurin and HCV NS3-4A: specific to nsP2pro

## Cc1cccc(C(=O)Nc2ccc(N3CCN(c4ccc(F)cc4)CC3)c(C(=O)O)c2)c1 [NCGC00137618]
[2]; [10]
  Enzymatic % Efficacy: -83%
[2]; [11]
  IC50: 10 µM
[3]
  Cell-based % Efficacy: 55.5%
[3]; read-out: Cell-based AC50
  AC50: 32.6 µM

## COC(=O)CC[C@H](NC(=O)[C@H](CC(=O)OC)NC(=O)OCc1ccccc1)C(=O)N[C@H](C(=O)N[C@@H](CC(=O)OC)C(=O)CF)C(C)C [Z-DEVD-FMK]
[2]
  inhibitory activity against CHIKV nsP2: did not identify

## CC(C)N(CCC(=O)c1ccc2ccccc2c1)Cc1ccccc1 [ZM39923]
[2]
  selectivity for nsP2pro versus Papain, hFurin and HCV NS3-4A: selective hits

## O=c1oc2c3c(ccc2c2ccccc12)OCN(Cc1ccc(Cl)cc1)C3 [NCGC00116366]
[2]
  IC50: 4.5 µM
  Emax: -114%
[3]
  AC50: 36.5 µM
  Emax: 309%

## CCCCN(CCCC)C(=S)[S-].CCCCN(CCCC)C(=S)[S-].[Zn+2] [Zinc dibutyldithiocarbamate]
[2]
  inhibitory activity against CHIKV nsP2: potent inhibitor
[7]
  activity against Furin: either weak or had no effect
[9]
  activity against Papain: potent inhibitor
[4]
  activity against HCV NS3-4A: either weak or had no effect
[1]; SNB-19 cells
  effect on CHIKV infection: difficult to distinguish from cell toxicity

## O=c1oc2c3c(ccc2c2ccccc12)OCN(Cc1ccccc1Cl)C3 [NCGC00116374]
[2]
  IC50: 4 µM
  selectivity for nsP2pro versus Papain, hFurin and HCV NS3-4A: specific to nsP2pro
  Emax: -103%
[3]
  AC50: 14.5 µM
  Emax: 112%

## CCC[C@H](NC(=O)[C@@H]1[C@H]2CCC[C@H]2CN1C(=O)[C@@H](NC(=O)[C@@H](NC(=O)c1cnccn1)C1CCCCC1)C(C)(C)C)C(=O)C(=O)NC1CC1 [Telaprevir]
[2]
  IC50: 3.5 µM
  selectivity for nsP2pro versus Papain, hFurin and HCV NS3-4A: not selective
  Emax: -123%
[3]
  AC50: 31.6 µM
  Emax: 213%
[8]
  CC50 at 48 h: 11.6 µM
[9]
  activity against Papain: potently inhibiting
[4]
  activity against HCV NS3-4A: potently inhibiting; also recorded: also inhibited
